Columns and labels:
U-87 MG [1] = assay: MTT assay, U-87 MG; format: cell-based; details: Homo sapiens, 24 h of incubation, read-out: IC50 values ± SEM, MTT assay
Method: (§1) Human glioblastoma cell lines (A172 CRL-1620™, U-87 MG HTB-14™, U-118 MG HTB-15™, T98G CRL-1690™) and the mouse astrocyte cell line (C8-D1A CRL-2541™) were obtained from the American Type Culture Collection (ATCC, Manassas, VA, USA). The cell lines were cultured in complete medium: DMEM (Corning, Kennebunk, ME, USA) for C8-D1A and T98G, and EMEM (ATCC, Manassas, VA, USA) for A172, U-87 MG, U118MG. The media were supplemented with 10% foetal bovine serum (Eurx, Gdansk, Poland) and 1% penicillin-streptomycin solution (Corning, Kennebunk, ME, USA). Cells were cultured in cell culture flasks (Sarstedt, Numbrecht, Germany) at 37 °C in 5% CO2. For experiments, cells were washed with phosphate-buffered saline without calcium and magnesium (Corning, Kennebunk, ME, USA) and treated with 0.05% trypsin and 0.02% EDTA (Corning, Kennebunk, ME, USA). Cells were counted using a Sceptre 3.0 cell counter (Merck Millipore, Burlington, MA, USA) prior to seeding into plates. For 6-well plates, 5 x 10^5 cells/mL were seeded, while for 96-well plates (Sarstedt, Numbrecht, Germany), 1 x 10^5 cells/mL were seeded in 100 μL of the medium.
(§2) The cell lines were seeded in 96-well plates and cultured according to the methodology described in the previous section. Cells were then treated with the novel derivatives MM118 and MM119 and the reference compound temozolomide (TMZ) (Sigma-Aldrich, St. Louis, MO, USA) at concentrations of 0.1, 0.25, 0.5, 1.0, 2.5, 5.0, and 10.0 μM for 24 h. The MTT assay was performed using a solution of 3–(4,5-dimethyl-2-thiazolyl)-2,5-diphenyl-2H-tetrazolium bromide (Sigma-Aldrich, St. Louis, MO, USA) at a concentration of 5 mg/mL in phosphate-buffered saline without calcium and magnesium (Corning, Kennebunk, ME, USA). After 24 h incubation with test compounds, 10 μL MTT solution was added to each well, and cells were incubated for another 2 h at 37 °C. The cells were then lysed in 100 μL lysis buffer (25 mM HCl, 2% acetic acid, 3% DMF, and 5% SDS, adjusted to pH 4.7). Absorbance was measured at 570 nm using an Absorbance 96 microplate reader (Byonoy GmbH, Hamburg, Germany).

U-118 MG = assay: MTT assay, U-118 MG; format: cell-based; details: Homo sapiens, 24 h of incubation, read-out: IC50 values ± SEM, MTT assay
Method: as §1, §2

C8-D1A = assay: MTT assay, C8-D1A astrocytes; format: cell-based; details: C8-D1A mouse astrocytes, 24 h of incubation; read-out: IC50 values ± SEM, MTT assay
Method: as §1, §2

U-87 MG [2] = assay: LDH release assay, U-87 MG; format: cell-based, human; details: 1.5 μM, 24 h
Method: Analogous to the procedure described in the previous section, A172 and U-87 MG cells were cultured and plated in 96-well plates. The LDH-Cytotoxicity Assay Kit II (ab65393) (Abcam, Cambridge, UK) was used to assess cytotoxicity according to the manufacturer’s protocol. The test compounds MM118 and MM119 and the reference compound temozolomide (TMZ) were added to the cells at a concentration of 1.5 μM. After 24 h of exposure, the medium was collected, centrifuged and 10 μL of each sample was transferred to a new 96-well plate. In the next step, 100 μL of LDH Reaction Mix was added to each well and incubated for 30 min at room temperature. Absorbance was measured at 450 nm using an Absorbance 96 microplate reader (Byonoy GmbH, Hamburg, Germany). Cytotoxicity was calculated according to the formula provided by the manufacturer: Cytotoxicity (%) = ((Test Sample – Low Control)/(High Control – Low Control)) X 100, where Low Control - control without added compound, High Control with added 10 µL Lysis Buffer II.

caspase 8 = assay: Caspase 8 activation (FAM FLICA), A172; format: cell-based, human; details: A172, 1.5 μM, 24 h
Method: (§3) The activity of caspase 1, caspase 3/7, caspase 8, and caspase 9 was evaluated through the utilisation of FAM FLICA Caspase Assays (ImmunoChemistry Technologies, Bloomington, MN, USA), in accordance with the established protocols. Following treatment with the compounds, the cells were collected at a concentration of 1 × 10^6 cells/mL, washed twice with cold PBS, and resuspended in 290 μL of PBS. The subsequent step involved the addition of 10 μL of 30X FLICA solution, followed by incubation at 37 °C in the absence of light for one hour. Then, 2 ml of Apoptosis Wash Buffer was added, and the samples were washed twice. A 300 μL aliquot of each sample was transferred to a BD FACSCanto II flow cytometer (Becton Dickinson Biosciences, San Jose, CA, USA), where 10,000 events per sample were recorded. The resulting data was then analysed using FACSDiva software, version 6.1.3 (BD Biosciences Systems, San Jose, CA, USA).

caspase 9 [3] = assay: Caspase 9 activation (FAM FLICA), A172; format: cell-based, human; details: A172, 1.5 μM, 24 h
Method: as §3

caspase 9 [4] = assay: Caspase 9 activation (FAM FLICA), U-87 MG; format: cell-based, human; details: 1.5 μM, 24 h
Method: as §3

caspase 3/7 = assay: Caspase 3/7 activation (FAM FLICA), A172; format: cell-based, human; details: A172, 1.5 μM, 24 h
Method: as §3

A172 = assay: Reactive oxygen species, H2DCFDA/DAPI staining, A172; format: cell-based, human; details: A172, 30 min of compound treatment
Method: (§4) We performed double staining with DAPI, which stains nuclear genetic material (blue fluorescence), and H2DCFDA, an indicator of oxidative stress (green fluorescence). This study allowed us to evaluate the ability of MM118 and MM119 to activate reactive oxygen species (ROS) in A172 and U-87 MG glial cells.
(§5) The impact of the tested compounds on reactive oxygen species (ROS) production was assessed. Cells were seeded in 6-well culture plates at a density of 1 × 10^5 cells per well in 1 ml of medium. Following a 30-min treatment with the compounds, cells were washed with phosphate-buffered saline (PBS). Subsequently, double staining was performed using 20 µM 2′,7′-dichlorodihydrofluorescein diacetate (H2DCFDA) (obtained from Thermo Fisher Scientific, Eugene, OR, USA). This colourless reagent is hydrolysed by intracellular esterases and subsequently oxidised to the 2′,7′-dichlorofluorescein (DCF), and 10 µg/mL of 4′,6-diamidino-2-phenylindole (DAPI) (Sigma-Aldrich, St. Louis, MO, USA) was used to stain nuclear DNA. Fluorescence was observed using a Nikon ECLIPSE Ti fluorescence microscope (Nikon, Tokyo, Japan). ImageJ software (Bethesda, MD, USA) was used for data analysis, with DCF fluorescence intensity measured relative to the control. A minimum of 100 cells per sample were analysed.

U-87 MG [5] = assay: Reactive oxygen species, H2DCFDA/DAPI staining, U-87 MG; format: cell-based, human; details: 30 min of compound treatment
Method: as §4, §5

Row | Compound | IC50 (U-87 MG [1]) [nM] | IC50 (U-118 MG) [nM] | IC50 (C8-D1A) [nM] | LDH release, cytotoxicity (U-87 MG [2]) [%] | Active caspase 8 (cell population) (caspase 8) | Active caspase 9 (cell population) (caspase 9 [3]) | Active caspase 9 (cell population) (caspase 9 [4]) | Active caspase 3/7 (cell population) (caspase 3/7) | ROS, mean green (DCF) fluorescence (A172) | ROS, mean green (DCF) fluorescence (U-87 MG [5])
1 | CCC(CO)NS(=O)(=O)c1ccc(-n2nc(C)c3nc4nnnn4nc32)cc1 (stereo in doubt) [MM118, N-(R)-(1-hydroxy-but-2-yl)-4-[7-methyl-5H-pyrazolo[4,3-e]tetrazolo[1,5-b][1]^,[2]^,[4]triazin-5-yl)]benzenesulfonamide] | 992 ± 370 | 471 ± 191 | 2190 ± 340 | 24.27 ± 2.74 | 42.85 ± 5.36% | 31.55 ± 8.07% | 67.23 ± 1.66% | 42.40 ± 12.59% | increase in mean green fluorescence | effectively induce oxidative stress
2 | CCC(CO)NS(=O)(=O)c1ccc(-n2nc(C)c3nc4nnnn4nc32)cc1 (stereo in doubt) [MM119, N-(S)-(1-hydroxy-but-2-yl)-4-[7-methyl-5H-pyrazolo[4,3-e]tetrazolo[1,5-b][1]^,[2]^,[4]triazin-5-yl)]benzenesulfonamide] | 1190 ± 422 | 670 ± 173 | 2250 ± 294 | 28.02 ± 5.27 | 34.35 ± 7.58% | 25.50 ± 6.04% | 51.45 ± 1.63% | 25.60 ± 4.29% | increase in mean green fluorescence | effectively induce oxidative stress
3 | Cn1nnc2c(C(N)=O)ncn2c1=O [TMZ, temozolomide, reference compound] | > 10000 | > 10000 | > 10000 | 1.18 ± 0.25 | No significant statistical differences | no significant differences | no significant differences | no significant differences |  | 

Source: article PMC12679848, “Sulphonamide derivatives with a triazine core as novel inducers of apoptosis and pyroptosis in glioblastoma multiforme cells” (Journal of Enzyme Inhibition and Medicinal Chemistry, 2025)
